Source: DBAASP
In brackets after ≈: the same amount, converted by molar mass. Values belong to the molecule of their own block, whether it stands above or below them.

What was measured:
Assay in all cases: ≥ marks a high value that may be exact or a test limit, other limits are often not marked, values filed in µg/mL are converted to µM
[1] = tested on: Bacillus subtilis CMCC 63501
Candida albicans CA2761 = tested on: Candida albicans CA2761
[2] = tested on: Candida albicans CGMCC 2.2086
[3] = tested on: Candida krusei CGMCC 2.1857
[4] = tested on: Candida tropicalis CGMCC 2.1975
[5] = tested on: Enterococcus faecalis ATCC 29212
Escherichia coli 078 = tested on: Escherichia coli 078
[6] = tested on: Escherichia coli ATCC 25922
Escherichia coli EC183 = tested on: Escherichia coli EC183
Escherichia coli K88 = tested on: Escherichia coli K88
Escherichia coli K99 = tested on: Escherichia coli K99
Escherichia coli UB1005 = tested on: Escherichia coli UB1005
[7] = tested on: Salmonella enterica subsp. enterica serovar Pullorum C79-13
[8] = tested on: Salmonella enterica subsp. enterica serovar Typhimurium ATCC 14028
[9] = tested on: Salmonella enterica subsp. enterica serovar Typhimurium C77-31
[10] = tested on: Staphylococcus aureus ATCC 25923
[11] = tested on: Staphylococcus aureus ATCC 29213
[12] = tested on: Staphylococcus epidermidis ATCC 12228
[13] = tested on: Acinetobacter baumannii ATCC 19606
[14] = tested on: Bacillus subtilis ATCC 6051
[15] = tested on: Pseudomonas aeruginosa ATCC 27853
[16] = tested on: Vibrio anguillarum ATCC 43305
Candida albicans C627 = tested on: Candida albicans C627
[17] = tested on: Enterococcus faecium mic80
[18] = tested on: Escherichia coli ESBL 63103
[19] = tested on: Pseudomonas aeruginosa 213
[20] = tested on: Pseudomonas aeruginosa H103
[21] = tested on: Pseudomonas aeruginosa LES400
[22] = tested on: Staphylococcus aureus C623
Bacillus cereus C737 = tested on: Bacillus cereus C737
[23] = tested on: Pseudomonas aeruginosa PAO1
[24] = tested on: Acinetobacter baumannii ATCC 15308
Citrobacter sp. = tested on: Citrobacter sp.
Enterobacter cloacae = tested on: Enterobacter cloacae
Klebsiella pneumoniae = tested on: Klebsiella pneumoniae
[25] = tested on: Pseudomonas aeruginosa ATCC 15442
Staphylococcus aureus = tested on: Staphylococcus aureus
Streptococcus pneumoniae = tested on: Streptococcus pneumoniae
[26] = tested on: Bacillus subtilis CICC 10034
[27] = tested on: Enterobacter cloacae CICC 21539
[28] = tested on: Escherichia coli CICC 10293
[29] = tested on: Listeria innocua CICC 10417
[30] = tested on: Pseudomonas aeruginosa CICC 21636
[31] = tested on: Salmonella enterica subsp. enterica serovar Paratyphi B CICC 10437
[32] = tested on: Serratia marcescens ATCC 4112
[33] = tested on: Staphylococcus aureus CICC 10306
[34] = tested on: Staphylococcus aureus CICC 10384
[35] = tested on: Bacillus cereus ATCC 11778
[36] = tested on: Klebsiella pneumoniae ATCC 700603
[37] = tested on: Salmonella enterica subsp. enterica serovar Enteritidis ATCC 13076
[38] = tested on: Serratia marcescens ATCC 21202
[39] = tested on: Streptococcus pyogenes ATCC 19615

Compound: CC[C@H](C)[C@H](NC(=O)[C@H](Cc1c[nH]c2ccccc12)NC(=O)[C@H](CCCCN)NC(=O)[C@H](CC(C)C)NC(=O)[C@@H](NC(=O)[C@H](CCCCN)NC(=O)CNC(=O)[C@@H](NC(=O)[C@H](CCCCN)NC(=O)[C@H](CCCCN)NC(=O)[C@H](CC(C)C)NC(=O)[C@@H](N)CCCN=C(N)N)[C@@H](C)CC)C(C)C)C(N)=O [RLKKIGKVLKWI]
MIC [1]: 2 µM (≈ 2.96 µg/mL)
MIC (Candida albicans CA2761): ≥ 128 µM
MIC [2]: ≥ 128 µM
MIC [3]: 16 µM (≈ 23.7 µg/mL)
MIC [4]: 8 µM (≈ 11.8 µg/mL)
MIC [5]: 64 µM (≈ 94.8 µg/mL)
MIC (Escherichia coli 078): 16 µM (≈ 23.7 µg/mL)
MIC [6]: 8 µM (≈ 11.8 µg/mL)
MIC (Escherichia coli EC183): 2 µM (≈ 2.96 µg/mL)
MIC (Escherichia coli K88): 4 µM (≈ 5.92 µg/mL)
MIC (Escherichia coli K99): 4 µM (≈ 5.92 µg/mL)
MIC (Escherichia coli UB1005): 16 µM (≈ 23.7 µg/mL)
MIC [7]: 4 µM (≈ 5.92 µg/mL)
MIC [8]: 16 µM (≈ 23.7 µg/mL)
MIC [9]: 8 µM (≈ 11.8 µg/mL)
MIC [10]: 128 µM (≈ 190 µg/mL)
MIC [11]: 64 µM (≈ 94.8 µg/mL)
MIC [12]: 64 µM (≈ 94.8 µg/mL)

Compound: CC[C@H](C)[C@H](NC(=O)[C@H](CCCN=C(N)N)NC(=O)[C@H](CCCN=C(N)N)NC(=O)[C@@H](NC(=O)[C@@H](NC(=O)[C@H](CCCN=C(N)N)NC(=O)[C@H](CCCN=C(N)N)NC(=O)[C@H](Cc1ccccc1)NC(=O)[C@H](CCCN=C(N)N)NC(=O)[C@H](CCCN=C(N)N)NC(=O)[C@H](CCCN=C(N)N)NC(=O)[C@H](CCCN=C(N)N)NC(=O)[C@@H](N)CCCN=C(N)N)C(C)C)[C@@H](C)CC)C(=O)N[C@@H](CCCN=C(N)N)C(=O)N[C@@H](CC(C)C)C(=O)N1CCC[C@H]1C(=O)N[C@@H](CCCCN)C(=O)N[C@@H](Cc1ccc(O)cc1)C(=O)N[C@@H](CC(C)C)C(=O)N[C@H](C(=O)N[C@H](C(=O)N[C@@H](CC(N)=O)C(=O)N[C@H](C(=O)N[C@@H](CCC(=O)O)C(=O)O)[C@@H](C)O)[C@@H](C)CC)[C@@H](C)O [RRRRRFRRVIRRIRLPKYLTINTE]
MIC [13]: 2 µM (≈ 6.45 µg/mL)
MIC [14]: ≥ 32 µM
MIC [6]: 4 µM (≈ 12.9 µg/mL)
MIC [15]: 32 µM (≈ 103 µg/mL)
MIC [10]: 8 µM (≈ 25.8 µg/mL)
MIC [16]: ≥ 32 µM

Compound: NCCCC[C@H](NC(=O)[C@@H](N)CCCN=C(N)N)C(=O)N[C@@H](CCCN=C(N)N)C(=O)N[C@@H](Cc1c[nH]c2ccccc12)C(=O)N[C@@H](Cc1c[nH]c2ccccc12)C(=O)N[C@@H](Cc1c[nH]c2ccccc12)C(=O)N[C@@H](Cc1c[nH]c2ccccc12)C(=O)N[C@@H](Cc1ccccc1)C(=O)N[C@@H](CCCN=C(N)N)C(=O)O [RKRWWWWFR]
MIC (Candida albicans C627): 5.31 µM (≈ 8 µg/mL)
MIC [17]: 5.31 µM (≈ 8 µg/mL)
MIC [18]: 5.31 µM (≈ 8 µg/mL)
MIC [19]: 5.31 µM (≈ 8 µg/mL)
MIC [20]: 1.33 µM (≈ 2 µg/mL)
MIC [21]: 21.2 µM (≈ 32 µg/mL)
MIC [10]: 2.65 µM (≈ 4 µg/mL)
MIC [22]: 1.33 µM (≈ 2 µg/mL)

Compound: NC(=O)[C@H](CCCN=C(N)N)NC(=O)[C@H](CCCN=C(N)N)NC(=O)[C@H](Cc1c[nH]c2ccccc12)NC(=O)[C@@H]1CCCN1C(=O)[C@H](Cc1c[nH]c2ccccc12)NC(=O)[C@H](Cc1c[nH]c2ccccc12)NC(=O)[C@@H]1CCCN1C(=O)[C@H](Cc1c[nH]c2ccccc12)NC(=O)[C@H](CCCN=C(N)N)NC(=O)[C@H](Cc1c[nH]c2ccccc12)NC(=O)[C@@H]1CCCN1C(=O)[C@H](CCCN=C(N)N)NC(=O)[C@@H](N)CCCN=C(N)N [RRPWRWPWWPWRR]
MIC [24]: ≥ 124 µM
MIC (Citrobacter sp.): ≥ 124 µM
MIC (Enterobacter cloacae): ≥ 124 µM
MIC [6]: 15.5 µM (≈ 31.2 µg/mL)
MIC (Klebsiella pneumoniae): > 124 µM
MIC [25]: 15.5 µM (≈ 31.2 µg/mL)
MIC [10]: 15.5 µM (≈ 31.2 µg/mL)
MIC (Staphylococcus aureus): 15.5 µM (≈ 31.2 µg/mL)
MIC (Streptococcus pneumoniae): 15.5 µM (≈ 31.2 µg/mL)

Next, values leading:

MIC (Bacillus cereus C737): ≥ 115 µM
MIC (Escherichia coli UB1005): ≥ 115 µM
MIC [23]: > 115 µM
Compound: CC[C@H](C)[C@H](NC(=O)[C@H](CC(=O)O)NC(=O)[C@H](Cc1ccccc1)NC(=O)[C@H](CC(C)C)NC(=O)CN)C(=O)N[C@H](C(=O)N[C@@H](CCCCN)C(=O)N[C@@H](CCCCN)C(=O)N[C@H](C(=O)N[C@H](C(N)=O)C(C)C)C(C)C)C(C)C [GLFDIVKKVV]

MIC [26]: ≥ 34.1 µM
MIC [27]: ≥ 34.1 µM
MIC [28]: 17.1 µM (≈ 16 µg/mL)
MIC [29]: 8.54 µM (≈ 8 µg/mL)
MIC [30]: ≥ 34.1 µM
MIC [31]: ≥ 34.1 µM
MIC [32]: ≥ 34.1 µM
MIC [33]: 8.54 µM (≈ 8 µg/mL)
MIC [34]: 8.54 µM (≈ 8 µg/mL)
Compound: CSCC[C@H](NC(=O)[C@@H](NC(=O)[C@@H](N)CCCN=C(N)N)C(C)C)C(=O)N[C@@H](Cc1ccccc1)C(=O)N[C@@H](CCCCN)C(=O)N[C@@H](Cc1c[nH]c2ccccc12)C(=O)N[C@@H](C)C(=O)O [RVMFKWA]

MIC [35]: ≥ 68.6 µM
MIC [6]: > 68.6 µM
MIC [36]: > 68.6 µM
MIC [15]: > 68.6 µM
MIC [37]: ≥ 68.6 µM
MIC [38]: ≥ 68.6 µM
MIC [11]: > 68.6 µM
MIC [39]: ≥ 68.6 µM
Compound: CC[C@H](C)[C@H](N)C(=O)N[C@H](C(=O)N1CCC[C@H]1C(=O)N[C@@H](CC(C)C)C(=O)N1CCC[C@H]1C(=O)N[C@@H](CC(C)C)C(=O)NCC(=O)N[C@@H](Cc1ccc(O)cc1)C(=O)N[C@@H](Cc1ccccc1)C(=O)N[C@@H](C)C(=O)N[C@@H](CCCCN)C(=O)N[C@@H](CCCCN)C(=O)N1CCC[C@H]1C(=O)O)[C@@H](C)CC [IIPLPLGYFAKKP]
